Test results taken from US20260297094A1, “Tetracyclic Compounds as SMARCA2 and/or SMARCA4 Degraders” (Aurigene Oncology Limited, priority 2023, published 2026).
Structures can show the parent of a compound that is named as a salt.

Columns and labels:
Format in all cases: cell-based
MV-4-11 cells = assay: Anti proliferative activity in MV-4-11 cells by Cell Titer Glo (Promega) assay; settings: Homo sapiens, MV4-11, 72 h, 3 days, CellTiter-Glo
Protocol: Example-P2: Determination of Anti Proliferative Activity of Compounds in Cell Lines MV-4-11 by Cell Titer Glo® (Promega) Assay
MV-4-11 (CRL-9591™) cells were seeded in 96 well plate flat black clear bottom plates (Corning, Cat. No 3904) using complete DMEM Medium. Next day, selected compounds of the present invention were added to cells from 10 mM stocks made in DMSO (Sigma Cat no. D2650). Each concentration of compound was tested in triplicate with DMSO concentration at a final percentage not exceeding 0.3 in the cells. After the incubation of MV-4-11 cells with compound for 3 days; assay was terminated using 100 μl of CellTiter Glo® reagent (Promega, Cat. no G7572). CellTiter-Glo® Luminescent reagent determines the number of viable cells based on quantitation of ATP present which is an indicator of cell number and metabolic activity. Luminescence readings were taken in Victor-5 instrument. Percent inhibition of proliferation was calculated using formula, % inhibition=100−(luminescence value of test/luminescence value of DMSO control)*100. DMSO control (0%)=Cells in complete media with DMSO; blank=Media alone containing DMSO. EC50 was calculated using graph pad prism software.

SK-MEL-5 cells = assay: Anti proliferative activity in SK-MEL-5 cells by Cell Titer Glo (Promega) assay; settings: Homo sapiens, retreatment on Day 4, terminated on day 8, CellTiter-Glo
Protocol: Example-P1: Determination of Anti Proliferative Activity of Compounds in Cell Lines SK-MEL-5 by Cell Titer Glo® (Promega) Assay
Cells were seeded into 96-well plates and the plate was incubated in 37 degrees incubator overnight. The next day, compounds were diluted 3-fold to cover 9-point concentration range in DMSO. Intermediate plate dilution was prepared in media followed with compound treatment in cells. Retreatment of cells with compound dilutions was performed on Day 4 and assay was terminated on day 8 for SK-MEL-5 cells using CellTiter-Glo and the plate was kept on orbital shaker for 20 minutes at RT. Assay was terminated on day 6 for RERF-LC-A1 without a compound retreatment. Luminescence signal was recorded on VICTOR^3 instrument. Percent inhibition of proliferation was calculated at each concentration and plotted against the compound concentration. EC50 value was calculated using GraphPad® software.

SMARCA2 = target: T1, SMARCA2 (Homo sapiens, UniProt P51531); assay: SMARCA2 degradation in MV-4-11 cells by Western blot; settings: MV4-11, 16 h, at 100 nM, vs DMSO, read-out: Percent degradation SMARCA2
T1 construct: endogenous in cells; host or cells: MV-4-11 (CRL-9591)
Protocol: (§1) Example-P3: Determination of SMARCA2 and SMARCA4 Degradation in MV-4-11 Cells by Western Blot
(§2) MV-4-11 (CRL-9591™) cells were plated in 6 well plates using complete Iscove's Modified Dulbecco's Medium. On the third day, compounds of present invention were added to cells from 10 mM stocks made in DMSO (Sigma Cat no. D2650). Each concentration of compound was tested with DMSO not exceeding final percentage of 0.1 in the cells. Cells were incubated with the compound for 16 hours followed by harvesting with 1×RIPA lysis buffer (Thermo Fischer, catalogue number #89900) containing protease inhibitor cocktail (Sigma catalogue number #P-8340). Equal amount of protein was loaded on SDS PAGE gel for electrophoresis. Western blot was carried out for detection of either SMARCA2 (Cell signalling technologies, catalogue number #11966) or SMARCA4 antibody (Cell signalling technologies, catalogue number #52251). Beta-Tubulin antibody (Cell signalling technologies, catalogue number #86298) was used as loading control. Percentage of SMARCA2 or SMARCA4 degradation was calculated using formula % Degradation=100−(normalized band intensity in treated sample/normalized band intensity in DMSO sample)*100. Here, “ND” refers to Not determined.

SMARCA4 = target: T2, SMARCA4 (Homo sapiens, UniProt P51532); assay: SMARCA4 degradation in MV-4-11 cells by Western blot; settings: MV4-11, at 100 nM, 16 hours, vs DMSO, read-out: Percent degradation SMARCA4
T2 construct: endogenous in cells; host or cells: MV-4-11 (CRL-9591)
Protocol: as §1, §2

T1 sequence (P51531 whole entry): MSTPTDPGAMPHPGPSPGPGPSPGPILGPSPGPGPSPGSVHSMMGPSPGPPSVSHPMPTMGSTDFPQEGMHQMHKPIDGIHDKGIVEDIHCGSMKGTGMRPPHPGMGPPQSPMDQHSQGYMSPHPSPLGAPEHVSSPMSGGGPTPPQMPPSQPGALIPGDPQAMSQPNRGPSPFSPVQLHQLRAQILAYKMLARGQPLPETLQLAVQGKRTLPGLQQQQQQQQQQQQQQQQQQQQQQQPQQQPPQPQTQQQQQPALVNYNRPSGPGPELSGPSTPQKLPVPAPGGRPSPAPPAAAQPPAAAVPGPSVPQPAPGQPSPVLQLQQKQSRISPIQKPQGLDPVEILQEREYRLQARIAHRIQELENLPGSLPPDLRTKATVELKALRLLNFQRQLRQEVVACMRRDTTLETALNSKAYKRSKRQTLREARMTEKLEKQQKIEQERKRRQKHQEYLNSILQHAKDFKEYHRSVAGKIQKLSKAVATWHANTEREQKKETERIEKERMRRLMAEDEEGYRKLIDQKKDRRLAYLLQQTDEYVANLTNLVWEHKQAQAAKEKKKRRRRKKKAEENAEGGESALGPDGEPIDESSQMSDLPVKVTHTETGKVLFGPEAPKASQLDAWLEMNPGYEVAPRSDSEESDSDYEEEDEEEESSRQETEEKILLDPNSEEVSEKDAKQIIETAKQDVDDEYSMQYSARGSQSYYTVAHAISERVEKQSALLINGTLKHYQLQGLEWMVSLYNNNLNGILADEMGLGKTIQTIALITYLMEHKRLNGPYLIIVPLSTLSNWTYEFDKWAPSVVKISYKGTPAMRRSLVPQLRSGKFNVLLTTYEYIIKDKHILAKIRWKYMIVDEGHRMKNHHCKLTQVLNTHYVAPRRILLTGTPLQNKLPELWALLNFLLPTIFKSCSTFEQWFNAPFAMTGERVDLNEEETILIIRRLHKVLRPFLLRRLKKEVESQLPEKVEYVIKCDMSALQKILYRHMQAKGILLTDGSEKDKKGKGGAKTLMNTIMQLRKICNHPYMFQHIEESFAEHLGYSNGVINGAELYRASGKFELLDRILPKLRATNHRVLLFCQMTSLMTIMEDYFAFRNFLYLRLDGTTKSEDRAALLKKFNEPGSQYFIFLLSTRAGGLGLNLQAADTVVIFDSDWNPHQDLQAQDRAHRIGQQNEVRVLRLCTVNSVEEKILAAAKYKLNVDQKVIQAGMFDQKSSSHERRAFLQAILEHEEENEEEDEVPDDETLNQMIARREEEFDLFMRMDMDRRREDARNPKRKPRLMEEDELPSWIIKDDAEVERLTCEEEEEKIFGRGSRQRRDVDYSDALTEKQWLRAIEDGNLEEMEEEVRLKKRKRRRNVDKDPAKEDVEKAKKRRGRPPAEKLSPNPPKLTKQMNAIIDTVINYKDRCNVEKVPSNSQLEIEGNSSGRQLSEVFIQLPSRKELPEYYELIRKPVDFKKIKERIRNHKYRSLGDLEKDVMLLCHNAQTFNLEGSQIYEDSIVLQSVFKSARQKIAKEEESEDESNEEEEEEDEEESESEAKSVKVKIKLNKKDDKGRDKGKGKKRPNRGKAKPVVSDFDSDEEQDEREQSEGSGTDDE
T2 sequence (P51532 whole entry): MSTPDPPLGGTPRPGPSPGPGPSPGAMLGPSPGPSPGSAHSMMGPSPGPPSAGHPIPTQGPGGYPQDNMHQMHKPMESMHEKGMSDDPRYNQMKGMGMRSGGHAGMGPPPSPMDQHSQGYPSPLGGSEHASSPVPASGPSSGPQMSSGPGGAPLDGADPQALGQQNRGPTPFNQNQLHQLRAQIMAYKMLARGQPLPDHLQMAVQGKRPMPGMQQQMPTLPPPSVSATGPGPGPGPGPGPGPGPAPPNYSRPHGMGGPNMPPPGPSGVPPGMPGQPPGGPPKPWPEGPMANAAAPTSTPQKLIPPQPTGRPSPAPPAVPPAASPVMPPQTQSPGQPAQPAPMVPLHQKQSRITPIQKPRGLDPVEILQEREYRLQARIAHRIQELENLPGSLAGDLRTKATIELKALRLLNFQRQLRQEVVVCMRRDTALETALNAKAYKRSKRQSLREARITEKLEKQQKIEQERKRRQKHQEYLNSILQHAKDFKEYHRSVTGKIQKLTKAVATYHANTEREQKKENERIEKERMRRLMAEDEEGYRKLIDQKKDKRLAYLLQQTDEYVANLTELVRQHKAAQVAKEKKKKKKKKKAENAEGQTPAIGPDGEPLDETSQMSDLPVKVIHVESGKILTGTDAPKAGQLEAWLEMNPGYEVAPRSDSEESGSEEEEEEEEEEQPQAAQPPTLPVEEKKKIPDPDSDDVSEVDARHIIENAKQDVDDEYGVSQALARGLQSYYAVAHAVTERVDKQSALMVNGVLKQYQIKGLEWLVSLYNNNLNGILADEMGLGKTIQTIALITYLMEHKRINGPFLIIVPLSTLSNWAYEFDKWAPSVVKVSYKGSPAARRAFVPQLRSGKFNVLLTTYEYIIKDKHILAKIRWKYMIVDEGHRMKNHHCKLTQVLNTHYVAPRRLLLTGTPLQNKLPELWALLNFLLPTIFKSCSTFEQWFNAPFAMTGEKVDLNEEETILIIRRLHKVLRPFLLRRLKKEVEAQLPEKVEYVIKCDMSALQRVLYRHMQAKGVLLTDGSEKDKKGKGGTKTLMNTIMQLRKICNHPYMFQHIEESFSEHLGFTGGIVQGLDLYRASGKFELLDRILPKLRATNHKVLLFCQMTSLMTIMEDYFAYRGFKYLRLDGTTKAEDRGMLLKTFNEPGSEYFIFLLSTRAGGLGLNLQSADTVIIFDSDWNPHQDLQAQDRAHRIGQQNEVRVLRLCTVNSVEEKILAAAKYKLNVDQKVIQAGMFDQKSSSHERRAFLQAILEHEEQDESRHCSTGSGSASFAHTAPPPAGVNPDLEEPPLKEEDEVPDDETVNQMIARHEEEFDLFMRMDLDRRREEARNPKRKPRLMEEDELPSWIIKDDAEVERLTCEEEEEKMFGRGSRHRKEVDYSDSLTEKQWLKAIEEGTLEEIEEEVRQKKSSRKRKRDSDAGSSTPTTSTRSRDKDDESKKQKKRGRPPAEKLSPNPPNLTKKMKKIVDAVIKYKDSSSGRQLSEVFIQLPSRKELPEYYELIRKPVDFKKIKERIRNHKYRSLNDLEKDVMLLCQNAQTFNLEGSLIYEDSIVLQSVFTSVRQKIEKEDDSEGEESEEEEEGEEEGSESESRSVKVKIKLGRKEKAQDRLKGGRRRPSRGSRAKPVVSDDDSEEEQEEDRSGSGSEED

Row | SMILES | EC50 (MV-4-11 cells) [nM] | EC50 (SK-MEL-5 cells) [nM] | inhibition at 0.1 µM (SMARCA2) [%] | inhibition at 0.1 µM (SMARCA4) [%]
1 | O=C1CCC(Nc2ccc(N3CCN(C4CCN(c5ccc6c(c5)n(C5CCCC5)c5nc(=O)c7c(Cl)cccc7n65)CC4)CC3)c(F)c2)C(=O)N1 (centres unmarked) [Compound 35, 3-((4-(4-(1-(4-chloro-7-cyclopentyl-5-oxo-5,7-dihydrobenzo[4,5]imidazo[1,2-a]quinazolin-9-yl)piperidin-4-yl)piperazin-1-y1)-3-fluorophenyl)amino)piperidine-2,6-dione-TFA salt] | > 100 | < 10 | 98 | 91
2 | Cn1c2cc(N3CCC(N4CCC(c5ccc(NC6CCC(=O)NC6=O)cc5F)CC4)CC3)ccc2n2c3cccc(Cl)c3c(=O)nc12 (centres unmarked) [Compound 36, 3-((4-(1′-(4-chloro-7-methyl-5-oxo-5,7-dihydrobenzo[4,5]imidazo[1,2-a]quinazolin-9-yl)-[1,4′-bipiperidin]-4-yl)-3-fluorophenyl)amino)piperidine-2,6-dione] | > 100 | < 10 | 99 | 97
3 | Nc1cccc2c1c(=O)nc1n(C3CCCC3)c3cc(N4CCC(N5CCC(c6ccc(C7CCC(=O)NC7=O)cc6)CC5)CC4)ccc3n21 (centres unmarked) [Compound 25, 3-(4-(1′-(4-amino-7-cyclopentyl-5-oxo-5,7-dihydrobenzo[4,5]imidazo[1,2-a]quinazolin-9-yl)-[1,4′-bipiperidin]-4-yl)phenyl)piperidine-2,6-dione-HCl salt] | 10 to 100 | < 10 | 67 | 33
4 | O=C1CCC(N2Cc3cc(N4CCN(C5CCN(c6ccc7c(c6)n(C6CCCC6)c6nc(=O)c8c(Cl)cccc8n76)CC5)CC4)ccc3C2=O)C(=O)N1 (centres unmarked) [Compound 30, 3-(5-(4-(1-(4-chloro-7-cyclopentyl-5-oxo-5,7-dihydrobenzo[4,5]imidazo[1,2-a]quinazolin-9-yl)piperidin-4-yl)piperazin-1-yl)-1-oxoisoindolin-2-yl)piperidine-2,6-dione-HCl salt] | > 100 | < 10 | 90 | 64
5 | O=C1CCC(c2ccc(N3CCN(C4CCN(c5ccc6c(c5)n(C5CCCC5)c5nc(=O)c7c(Br)cccc7n65)CC4)CC3)cc2)C(=O)N1 (centres unmarked) [Compound 6, 3-(4-(4-(1-(4-bromo-7-cyclopentyl-5-oxo-5,7-dihydrobenzo[4,5]imidazo[1,2-a]quinazolin-9-yl)piperidin-4-yl)piperazin-1-yl)phenyl)piperidine-2,6-dione] | > 100 | < 10 | 96 | 90
6 | O=C1CCC(Oc2ccc(C3CCN(C4CCN(c5ccc6c(c5)n(C5CCCC5)c5nc(=O)c7c(Br)cccc7n65)CC4)CC3)cc2)C(=O)N1 (centres unmarked) [Compound 2, 3-(4-(1′-(4-bromo-7-cyclopentyl-5-oxo-5,7-dihydrobenzo[4,5]imidazo[1,2-a]quinazolin-9-yl)-[1,4′-bipiperidin]-4-yl)phenoxy)piperidine-2,6-dione-TFA salt] | < 10 | < 10 | 100 | 100
7 | CC(C)n1c2cc(N3CCC(N4CCC(c5ccc(NC6CCC(=O)NC6=O)cc5F)CC4)CC3)ccc2n2c3cccc(Cl)c3c(=O)nc12 (centres unmarked) [Compound 29, 3-((4-(1′-(4-chloro-7-isopropyl-5-oxo-5,7-dihydrobenzo[4,5]imidazo[1,2-a]quinazolin-9-yl)-[1,4′-bipiperidin]-4-yl)-3-fluorophenyl)amino)piperidine-2,6-dione-HCl salt] | < 10 | < 10 | 96 | 97
8 | O=C1CCC(Nc2ccc(C3CCN(C4CCN(c5ccc6c(c5)n(C5CCCC5)c5nc(=O)c7c(Cl)cccc7n65)CC4)CC3)c(F)c2)C(=O)N1 (centres unmarked) [Compound 23, 3-((4-(1′-(4-chloro-7-cyclopentyl-5-oxo-5,7-dihydrobenzo[4,5]imidazo[1,2-a]quinazolin-9-yl)-[1,4′-bipiperidin]-4-yl)-3-fluorophenyl)amino)piperidine-2,6-dione-HCl salt] | < 10 | < 10 | 99 | 98
9 | Nc1cccc2c1c(=O)nc1n(C3CCCC3)c3cc(N4CCC(N5CCN(c6ccc(C7CCC(=O)NC7=O)cc6)CC5)CC4)ccc3n21 (centres unmarked) [Compound 26, 3-(4-(4-(1-(4-amino-7-cyclopentyl-5-oxo-5,7-dihydrobenzo[4,5]imidazo[1,2-a]quinazolin-9-yl)piperidin-4-yl)piperazin-1-yl)phenyl)piperidine-2,6-dione-HCl salt] | > 100 | 10 to 100 | 68 | 33

Second part, the compound after the results:

Row | EC50 (MV-4-11 cells) [nM] | EC50 (SK-MEL-5 cells) [nM] | inhibition at 0.1 µM (SMARCA2) [%] | inhibition at 0.1 µM (SMARCA4) [%] | SMILES
10 | < 10 | < 10 | 96 | 95 | Cn1c2cc(N3CCC(N4CCC(c5ccc6c(c5)CN(C5CCC(=O)NC5=O)C6=O)CC4)CC3)ccc2n2c3cccc(N)c3c(=O)nc12 (centres unmarked) [Compound 15, 3-(5-(1′-(4-amino-7-methyl-5-oxo-5,7-dihydrobenzo[4,5]imidazo[1,2-a]quinazolin-9-yl)-[1,4′-bipiperidin]-4-yl)-1-oxoisoindolin-2-yl)piperidine-2,6-dione-HCl salt]
11 | < 10 | < 10 | 100 | 94 | Cn1c2cc(N3CCC(N4CCC(c5ccc6c(c5)CN(C5CCC(=O)NC5=O)C6=O)CC4)CC3)ccc2n2c3cccc(Br)c3c(=O)nc12 (centres unmarked) [Compound 14, 3-(5-(1′-(4-bromo-7-methyl-5-oxo-5,7-dihydrobenzo[4,5]imidazo[1,2-a]quinazolin-9-yl)-[1,4′-bipiperidin]-4-yl)-1-oxoisoindolin-2-yl)piperidine-2,6-dione]
12 | < 10 | < 10 | 92 | 99 | Nc1cccc2c1c(=O)nc1n(C3CCCC3)c3cc(N4CCC(N5CCC(c6ccc7c(c6)CN(C6CCC(=O)NC6=O)C7=O)CC5)CC4)ccc3n21 (centres unmarked) [Compound 8, 3-(5-(1′-(4-amino-7-cyclopentyl-5-oxo-5,7-dihydrobenzo[4,5]imidazo[1,2-a]quinazolin-9-yl)-[1,4′-bipiperidin]-4-yl)-1-oxoisoindolin-2-yl)piperidine-2,6-dione-HCl salt]
13 | < 10 | < 10 | 98 | 95 | Cn1c2cc(N3CCC(N4CCC(c5ccc(C6CCC(=O)NC6=O)cc5)CC4)CC3)ccc2n2c3cccc(Cl)c3c(=O)nc12 (centres unmarked) [Compound 18, 3-(4-(1′-(4-chloro-7-methyl-5-oxo-5,7-dihydrobenzo[4,5]imidazo[1,2-a]quinazolin-9-yl)-[1,4′-bipiperidin]-4-yl)phenyl)piperidine-2,6-dione]
14 | < 10 | < 10 | 99 | 99 | O=C1CCC(N2Cc3cc(C4CCN(C5CCN(C6CCN(c7ccc8c(c7)n(C7CCCC7)c7nc(=O)c9c(Br)cccc9n87)CC6)CC5)CC4)ccc3C2=O)C(=O)N1 (centres unmarked) [Compound 7, 3-(5-(1″-(4-bromo-7-cyclopentyl-5-oxo-5,7-dihydrobenzo[4,5]imidazo[1,2-a]quinazolin-9-yl)-[1,4′:1′,4″-terpiperidin]-4-yl)-1-oxoisoindolin-2-yl)piperidine-2,6-dione]
